Measured values as given in patent publication US8318186B2, “Use of at least a fatty ester for preparing a composition designed to inhibit 5-α-reductase activity, in pharmacology, in particular dermatology, in cosmetics and as food additive” (Laboratoires Expanscience, priority 2000, dated 2012).
Where “and” joins values, the source holds several entries; their conditions need not be identical. Equal entries are not always repeated. Marks after values point to notes of the source that are not given here.

What was measured:
[1] = test system: normal human dermal fibroblasts; experiment: Morphological examination of the fibroblasts (Example 4); format: cell-based; details: at 10 and 100 μg/ml
[2] = test system: 5α-reductase; experiment: Fatty acid esters on 5α-reductase activity, conversion of testosterone to 5α-dihydrotestosterone in normal human dermal fibroblast cultures (Example 4); format: cell-based; design: key to group by 5α-reductase inhibitory activity: group A with the highest inhibitory activity; group B with an intermediate inhibitory activity; details: for inhibition of the 5α-reductase activity: Example 4, p<0.05; for 5α-DHT formed per culture well, mean / 5α-DHT formed per culture well, single well: after 24 of incubation, DMSO 0.1% (v/v); for 5α-DHT formed per culture well, single well: single replicate
Procedure: The fibroblast culture medium (FCM) consisted of MEM/M199 (3:1, v/v) supplemented with penicillin (50 IU/ml), streptomycin (50 μg/ml), sodium bicarbonate (0.2%, w/v) and FCS (10%, v/v).
The assay system consisted of normal human dermal fibroblasts cultured as a monolayer. The fibroblasts were isolated from a residue from abdominal plastic surgery performed on a person (subject BIOPREDIC No. I0013). The cells were used at the fifth passage; they were cultured until the monolayers were confluent in FCM medium at 37° C. in a humid atmosphere containing 5% CO2.
The fibroblast incubation medium (FIM) consisted of FCM supplemented with tritiated testosterone (1.6×10^−7 M, that is 6.32 μCi/ml) and nonradiolabeled testosterone (3.84×10^−6 M)
The test products and finasteride were taken up in DMSO before being diluted in the incubation medium. […]
The fibroblast cultures were preincubated in the presence of the test products or of the reference product for 2 hours before adding the substrate, testosterone. For this step, the test products and the reference product were prepared in the FCM medium.
After preincubation, the fibroblast cultures were incubated in the presence of the test products or of the reference product prepared in the FIM medium for 22 hours at 37° C. in a humid atmosphere containing 5% CO2. Control cultures were incubated in the FIM medium in the absence of test products and of reference product. […]
Each experimental condition was tested in triplicate.
After the incubation period, the cells were subjected to the action of ultrasound in the FIM medium. The cellular lysates thus obtained were extracted with dichloromethane. After evaporation, the dry residues were taken up in methanol and were deposited on 60F254 silica plates (MERCK, reference 5554).
The migration solvent was a mixture of dichloromethane and ether (7:3, v/v) At the end of the migration, the silica plates were read using a BERTHOLD radioactivity scanner.
The metabolizing of testosterone to 5α-dihydro-testosterone under the various experimental conditions was calculated: the results (areas of the 5α-dihydrotestosterone peaks counted by the BERTHOLD scanner) were expressed in pmol of 5α-dihydro-testosterone formed per culture well. They were also expressed as a percentage of the 5α-reductase activity present in the “DMSO control” group.
The groups of data (control group and treated groups) were treated by a one-way analysis of variance (ANOVA 1, p<0.05), followed by a DUNNETT's test (p<0.05). The effect of the test products and of the reference product was compared with the “DMSO control” group. The effects of the test products were compared to each other by a two-way analysis of variance (ANOVA 2, p<0.05, factor 1=concentration and factor 2=treatment).
The same materials and methods are used as in example 3 above.
It was proposed to evaluate the effect of fatty acid esters on the 5α-reductase activity. An in vitro model of normal human dermal fibroblast cultures was selected. The products tested were chosen from the group of fatty acid esters varying in the length and the functionality of the fatty chain, and the nature of the alkoxy group. These esters are the following: methyl oleate, methyl linoleate, methyl stearate, methyl laurate, methyl undecylenate, butyl oleate, oleyl oleate and methyl ricinoleate.

SMILES: CCCCCCCC/C=C\CCCCCCCCOC(=O)CCCCCCC/C=C\CCCCCCCC [Oleyl oleate, oleyl oleate]
- state of the fibroblasts by morphological examination of the cells [1]: cellular suffering
- 5α-reductase activity as percentage of the “DMSO 0.1% (v/v)” group ([2]; 1 μg/ml): 72 percentage of the “DMSO 0.1% (v/v)” group
- inhibition of the 5α-reductase activity ([2]; 1 μg/ml): 28%
- 5α-DHT formed per culture well, mean ([2]; 1 μg/ml): 8.17* +/− pmol of 5α-DHT formed/culture well
- 5α-DHT formed per culture well, single well ([2]; 1 μg/ml): 9.00 pmol of 5α-DHT formed/culture well and 7.32 pmol of 5α-DHT formed/culture well and 8.20 pmol of 5α-DHT formed/culture well
- 5α-reductase activity as percentage of the “DMSO 0.1% (v/v)” group ([2]; 10 μg/ml): 55 percentage of the “DMSO 0.1% (v/v)” group
- inhibition of the 5α-reductase activity ([2]; 10 μg/ml): 45%
- 5α-DHT formed per culture well, mean ([2]; 10 μg/ml): 6.25* +/− pmol of 5α-DHT formed/culture well
- 5α-DHT formed per culture well, single well ([2]; 10 μg/ml): 6.12 pmol of 5α-DHT formed/culture well and 6.44 pmol of 5α-DHT formed/culture well and 6.20 pmol of 5α-DHT formed/culture well
- 5α-reductase activity as percentage of the “DMSO 0.1% (v/v)” group ([2]; 100 μg/ml): 65 percentage of the “DMSO 0.1% (v/v)” group
- inhibition of the 5α-reductase activity ([2]; 100 μg/ml): 35%
- 5α-DHT formed per culture well, mean ([2]; 100 μg/ml): 7.45* +/− pmol of 5α-DHT formed/culture well
- 5α-DHT formed per culture well, single well ([2]; 100 μg/ml): 6.28 pmol of 5α-DHT formed/culture well and 8.60 pmol of 5α-DHT formed/culture well and 7.48 pmol of 5α-DHT formed/culture well
- group by 5α-reductase inhibitory activity ([2]; tested at 1, 10 and 100 μg/ml): A
